# From patent publication US9464075B2 (priority 2008, dated 2016)
# Where two headings read alike, the source gives them in different places.
# Legend:
# AM2 = AM2 (Influenza A virus, UniProt P0DOF5); experiment: cell-based; conditions: read-out: AM2 % inhibition at 100 μM
# [1] = molecular target: A/M2 channels (Influenza virus A/Udorn/72 A/M2 protein) (Influenza A virus, UniProt P0DOF5); experiment: cell-based; conditions: for activity at 100 µM: read-out: AM2 channel activity after 100 μM compound inhibition
# Sequence of A/M2 channels (Influenza virus A/Udorn/72 A/M2 protein) (P0DOF5 whole entry, looked up): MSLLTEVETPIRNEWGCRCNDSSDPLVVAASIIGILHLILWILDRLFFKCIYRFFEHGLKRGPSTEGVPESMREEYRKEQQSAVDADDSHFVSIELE
# A/M2TM (22-46) = A/M2TM (22-46) (Influenza A virus, UniProt P0DOF5); experiment: biochemical; format: binding
# Sequence of A/M2TM (22-46) (P0DOF5 22-46 limits assumed): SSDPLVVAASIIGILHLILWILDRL
# Sequence of AM2 (P0DOF5 whole entry): as the sequence (P0DOF5 whole entry, looked up) above
smiles,measurement,setting,value
N=C(N)NC1CCC2(CCCCC2)CC1 [Compound 35],inhibition at 100 µM,AM2,92%
"c1nc(NC2CCC3(CCCCC3)CC2)n[nH]1 [Compound 11, Spiro[5.5]undec-3-yl-(1H-[1,2,4]triazol-3-yl)-amine]",activity at 100 µM,[1],25%
Cl.NC1CCC2(CCCCC2)CC1 [Compound 8],AM2 channel activity after 100 μM compound inhibition,[1],11%
"NN1CCC2(CCCCC2)CC1 [Compound 29, 3-Aza-spiro[5.5]undec-3-yl-ammonium chloride]",inhibition at 100 µM,AM2,86%
"Cl.NC1CSC2(CCCCC2)SC1 [Compound 33, 1,5-Dithia-spiro[5.5]undec-3-yl-ammonium chloride]",inhibition at 100 µM,AM2,84.2%
"c1nc(CNCCNC2CCC3(CCCCC3)CC2)c[nH]1 [Compound 14, N-(1H-Imidazol-4-ylmethyl)-N′-spiro[5.5]undec-3-yl-ethane-1,2-diamine]",activity at 100 µM,[1],91%
"NN1C(=O)CC2(CCCCC2)CC1=O [Compound 28, 3-Amino-3-aza-spiro[5.5]undecane-2,4-dione]",inhibition at 100 µM,AM2,29%
OC1(c2cnc[nH]2)CCC2(CCCCC2)CC1 [Compound 15],activity at 100 µM,[1],40%
"NCCNC1CCC2(CCCCC2)CC1 [Compound 12, N^1-Spiro[5.5]undec-3-yl-ethane-1,2-diamine]",activity at 100 µM,[1],100%
"C1CCC2(CC1)CCCNCC2 [Compound 30, 9-Azonia-spiro[5.6]dodecane chloride]",inhibition at 100 µM,AM2,94%
OC(c1c[nH]cn1)C1CCC2(CCCCC2)CC1 (stereo not shown) [Compound 18],activity at 100 µM,[1],30%
"NCCCNC1CCC2(CCCCC2)CC1 [Compound 13, N^1-Spiro[5.5]undec-3-yl-propane-1,3-diamine]",activity at 100 µM,[1],100%
"C1CCC2(CC1)CCNCC2 [Compound 20, 3-Aza-spiro[5.5]undecane, reference compound]",Kd,A/M2TM (22-46); read-out: Kd,12.9 µM
same,IC50,[1],0.92 ± 0.11 µM
same,activity at 100 µM,[1],5%
"NC1CSC2(CCCCCC2)SC1 [Compound 34, 1,5-Dithia-spiro[5.6]dodec-3-yl-ammonium chloride]",inhibition at 100 µM,AM2,84.1%
"CCC1(CC)CCc2nc(N)sc2C1 [Compound 32, 6,6-Diethyl-4,5,6,7-tetrahydro-benzothiazol-2-ylamine]",inhibition at 100 µM,AM2,32%
"Cl.NNC1CCC2(CCCCC2)CC1 [Compound 31, N′-Spiro[5.5]undec-3-yl-hydrazinium chloride]",inhibition at 100 µM,AM2,78.8%
"NC12CC3CC(CC(C3)C1)C2 [Amantadine, reference compound]",activity at 100 µM,[1],6%
"C1CCC2(CC1)CCN(C1=NCCN1)CC2 [BL-1743, 3-(4,5-Dihydro-1H-imidazol-2-yl)-3-aza-spiro[5.5]undecane, reference compound]",Kd,A/M2TM (22-46),194 µM
same,IC50,[1],45.3 ± 3.92 µM
same,activity at 100 µM,[1],25%
